# Results from patent US20130272962A1, “STAINING AGENT FOR CORNEAL STAINING” (FLUORON GMBH, priority 2012, published 2013).
# Legend:
# [1] = Solubility of the dyestuff in liquids for application in the eye; type: physicochemical; details: for solubility in liquids suitable for application in the anterior and posterior region of the eye: balanced salt solution (BSS), water for injection; for solubility in liquids that are heavier than water: ≧1.01 g/cm^3, e.g. polyethylene glycol
# [2] = Staining of ophthalmic membranes
# [3] = test system: Human Retinal Pigment Epithelial Cells; details: Veckeneer et al. 2002 (rabbit eyes); Rezai et al. 2004; cited from earlier work
# [4] = Cahen 1964; product information BLURHEX; cited from earlier work
# [5] = test system: Human Retinal Pigment Epithelium in Vitro; details: Wu et al. 2005; cited from earlier work
# [6] = Ito et al. 2004; cited from earlier work
# [7] = test system: Human Corneal Epithelial Cells; details: intensified by interaction with light; Kim et al. 1999; cited from earlier work
# [8] = test system: eukaryotes; details: cited from earlier work
# [9] = test system: cornea; details: Ünlü et al. 2000; Gamal Eldin et al. 1999; cited from earlier work
smiles,measurement,setting,value
"CCOc1ccc(Nc2ccc(/C(=C3C=C/C(=[N+](/CC)Cc4cccc(S(=O)(=O)[O-])c4)C=C/3C)c3ccc(N(CC)Cc4cccc(S(=O)(=O)[O-])c4)cc3C)cc2)cc1.[Na+] [BBG, Brilliant Blue G]",solubility in liquids suitable for application in the anterior and posterior region of the eye,[1],very readily soluble
same,solubility in liquids that are heavier than water,[1],very readily soluble
same,coloring of the inner limiting membrane (ILM) and the anterior and posterior lens capsules,[2],capable of coloring both the inner limiting membrane (ILM) and the anterior and posterior lens capsules
same,staining of the cornea or constituents thereof,[2],capable of staining the cornea or constituents thereof
Cc1cc(-c2ccc(/N=N/c3c(S(=O)(=O)O)cc4cc(S(=O)(=O)O)cc(N)c4c3O)c(C)c2)ccc1/N=N/c1c(S(=O)(=O)O)cc2cc(S(=O)(=O)O)cc(N)c2c1O [trypan blue],cytotoxicity,[3],cytotoxic
same,teratogenic or mutagenic effect,[4],teratogenic or mutagenic effect
"CC1(C)C(/C=C/C=C/C=C/C=C2\N(CCCCS(=O)(=O)O)c3ccc4ccccc4c3C2(C)C)=[N+](CCCCS(=O)(=O)[O-])c2ccc3ccccc3c21 [ICG, indocyanine green]",phototoxicity,[5],phototoxic
same,cytotoxicity,[6],cytotoxic
O=C([O-])c1c(Cl)c(Cl)c(Cl)c(Cl)c1-c1c2cc(I)c(=O)c(I)c-2oc2c(I)c([O-])c(I)cc12.[Na+].[Na+] [Rose bengal],cytotoxicity,[7],cytotoxic
CCN(CC)c1ccc(C(=C2C=CC(=[N+](CC)Cc3cccc(S(=O)(=O)[O-])c3)C=C2)c2ccc(N(CC)Cc3cccc(S(=O)(=O)O)c3)cc2)cc1 [Acid Violet 17],solubility in liquids suitable for application in the anterior and posterior region of the eye,[1],very readily soluble
same,solubility in liquids that are heavier than water,[1],very readily soluble
same,coloring of the inner limiting membrane (ILM) and the anterior and posterior lens capsules,[2],capable of coloring both the inner limiting membrane (ILM) and the anterior and posterior lens capsules
same,staining of the cornea or constituents thereof,[2],capable of staining the cornea or constituents thereof
"[2H]O[2H] [Heavy water, D2O]",concentration in water tolerated by eukaryotes,[8],≤ 20%
CN(C)c1ccc(C(=C2C=CC(=[N+](C)C)C=C2)c2ccc(N(C)C)cc2)cc1 [Gentian violet],corneal oedema,[9],cause corneal oedemas
